Measurements: patent publication US20220017877A1, “BILIRUBIN OXIDASE ACTIVITY IMPROVING METHOD, AND BILIRUBIN OXIDASE PRODUCT” (OZEKI CORPORATION, priority 2018, published 2022)
Like-named read-outs stand apart in the source and are kept apart here.

Target: T1, recombinant BOD (bilirubin oxidase) derived from Myrothecium verrucaria MT-1 (Albifimbria verrucaria, UniProt Q12737)
T1 construct: made in house; host or cells: Aspergillus sp
T1 sequence (Q12737 39-572): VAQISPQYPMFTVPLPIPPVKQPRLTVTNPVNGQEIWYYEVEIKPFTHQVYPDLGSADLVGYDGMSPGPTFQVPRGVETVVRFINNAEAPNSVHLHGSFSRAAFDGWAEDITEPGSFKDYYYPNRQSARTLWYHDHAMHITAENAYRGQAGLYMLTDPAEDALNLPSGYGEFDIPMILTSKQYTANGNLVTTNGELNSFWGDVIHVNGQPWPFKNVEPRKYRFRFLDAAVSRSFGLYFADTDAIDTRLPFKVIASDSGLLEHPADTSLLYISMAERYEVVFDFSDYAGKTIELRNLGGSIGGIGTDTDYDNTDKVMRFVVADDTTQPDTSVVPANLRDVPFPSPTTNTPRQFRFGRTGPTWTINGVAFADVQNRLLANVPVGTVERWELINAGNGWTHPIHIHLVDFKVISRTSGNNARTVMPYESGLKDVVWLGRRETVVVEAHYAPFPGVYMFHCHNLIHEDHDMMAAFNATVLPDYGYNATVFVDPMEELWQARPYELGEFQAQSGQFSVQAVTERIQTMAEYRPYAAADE
Experiment: BOD activity after leaving the BOD solution with an activity improving agent at 5 to 50° C. in a deoxygenated atmosphere (Test Example 2)
Format: biochemical
Conditions: for BOD activity increase at 5° C. compared with not lower than 10° C.: BOD containers left at 5° C.
Text: In Test Example 1, a BOD gene derived from a Myrothecium verrucaria MT-1 (GenBank accession number: D12579.1) was introduced into an Aspergillus sp., and then a recombinant BOD (hereinafter, also referred to simply as “BOD”) expressed in the Aspergillus sp. was purified by using a well-known technique and then used as the BOD. The BOD gene derived from the Myrothecium verrucaria MT-1 was codon-optimized in accordance with a gene sequence of the Aspergillus sp., and then introduced into the Aspergillus sp. Further, the BOD thus purified was dissolved in a 50 mM glycine-KOH (pH 8.5) buffer so that the concentration of the BOD became 1.0 mg/mL. Then, a resultant solution was used as a BOD enzyme solution.
The enzymatic activity of the BOD was measured as follows. To 1780 μL of a 50 mM potassium phosphate buffer (pH 6.5), 200 μL of a 20 mM ABTS substrate solution was added, so that a mixed solution (1980 μL) was prepared. This mixed solution was incubated for 1 min at 37° C. Thereafter, 20 μL of a solution containing the BOD (specifically, a BOD solution for evaluation, which will be described later) was added to the mixed solution, and a resultant mixed solution (2 mL) was incubated at 37° C. While the mixed solution was incubated, the absorbance of the mixed solution at a wavelength of 436 nm was measured immediately after that addition of the BOD solution for evaluation (at 0 seconds) and thereafter every 20 seconds. On the basis of (i) the absorbance of the mixed solution at a wavelength of 436 nm immediately after the addition of the BOD solution for evaluation and (ii) the absorbance of the mixed solution at a wavelength of 436 nm after a lapse of 1 minute from the addition of the BOD solution for evaluation, calculation was carried out for obtaining an increase rate per minute of the absorbance of the mixed solution at a wavelength of 436 nm after the addition of the BOD solution for evaluation. The BOD activity (unit) in the BOD solution for evaluation was calculated from the increase rate. In the present specification, the amount of enzyme for oxidizing 1 μmol of ABTS per minute was defined as one unit.
The following describes a specific test method in Test Example 2. A BOD solution containing an activity improving agent was prepared as in Test Example 1. Further, another BOD solution which contained no activity improving agent (to which no activity improving agent was added) was prepared and used as a control. In Test Example 2, L-ascorbic acid or uric acid was used as the activity improving agent. Moreover, the final concentration of L-ascorbic acid in the BOD solution was set to 4 mM, and the final concentration of uric acid in the BOD solution was set to 20 mM. In addition, in Test Example 2, the concentration of the BOD in the BOD enzyme solution was set to 3.0 mg/mL.
Each of the above BOD solutions and a deoxygenating agent (Anaero Pack-Kenki manufactured by Mitsubishi Gas Chemical Company, Inc.) were included in one container (pouch) which was not permeable to oxygen. Then, the container was sealed, so that a BOD container was prepared. The BOD container was left at room temperature (approximately 25° C.) for approximately 2 hours, so that an inner atmosphere of the container became the deoxygenated atmosphere. Thereafter, the BOD container was left in a thermostatic chamber set at 5° C., 10° C., 20° C., 30° C., 40° C., or 50° C. for a certain period of time. Here, (a) the BOD solution without any additive was left for 1 day, 3 days, 7 days, 14 days, or 29 days, (b) the BOD solution containing L-ascorbic acid was left for 1 day, 3 days, 7 days, or 14 days, and (c) the BOD solution containing uric acid was left for 1 day, 3 days, 8 days, 14 days, or 28 days. Three samples (BOD containers) were prepared for each condition. After leaving the BOD containers under the above conditions, the BOD solution was collected from each of the BOD containers and used as a BOD solution for evaluation. […]

O=C1O[C@H]([C@@H](O)CO)C(O)=C1O [L-ascorbic acid]
activity at 4000 µM (4 mM, 5° C., Day 0, read-out: Activity (%) Day 0): 100% | activity at 4000 µM (4 mM, 5° C., Day 1, read-out: Activity (%) Day 1): 92% | activity at 4000 µM (4 mM, 5° C., Day 3, read-out: Activity (%) Day 3): 95% | activity at 4000 µM (4 mM, 5° C., Day 7, read-out: Activity (%) Day 7): 107% | activity at 4000 µM (4 mM, 5° C., Day 14, read-out: Activity (%) Day 14): 55% | activity at 4000 µM (4 mM, 10° C., Day 0, read-out: Activity (%) Day 0): 100% | activity at 4000 µM (4 mM, 10° C., Day 1, read-out: Activity (%) Day 1): 101% | activity at 4000 µM (4 mM, 10° C., Day 3, read-out: Activity (%) Day 3): 120% | activity at 4000 µM (4 mM, 10° C., Day 7, read-out: Activity (%) Day 7): 146% | activity at 4000 µM (4 mM, 10° C., Day 14, read-out: Activity (%) Day 14): 147% | activity at 4000 µM (4 mM, 20° C., Day 0, read-out: Activity (%) Day 0): 100% | activity at 4000 µM (4 mM, 20° C., Day 1, read-out: Activity (%) Day 1): 115% | activity at 4000 µM (4 mM, 20° C., Day 3, read-out: Activity (%) Day 3): 160% | activity at 4000 µM (4 mM, 20° C., Day 7, read-out: Activity (%) Day 7): 195% | activity at 4000 µM (4 mM, 20° C., Day 14, read-out: Activity (%) Day 14): 188% | activity at 4000 µM (4 mM, 30° C., Day 0, read-out: Activity (%) Day 0): 100% | activity at 4000 µM (4 mM, 30° C., Day 1, read-out: Activity (%) Day 1): 164% | activity at 4000 µM (4 mM, 30° C., Day 3, read-out: Activity (%) Day 3): 205% | activity at 4000 µM (4 mM, 30° C., Day 7, read-out: Activity (%) Day 7): 204% | activity at 4000 µM (4 mM, 30° C., Day 14, read-out: Activity (%) Day 14): 229% | activity at 4000 µM (4 mM, 40° C., Day 0, read-out: Activity (%) Day 0): 100% | activity at 4000 µM (4 mM, 40° C., Day 1, read-out: Activity (%) Day 1): 212% | activity at 4000 µM (4 mM, 40° C., Day 3, read-out: Activity (%) Day 3): 216% | activity at 4000 µM (4 mM, 40° C., Day 7, read-out: Activity (%) Day 7): 215% | activity at 4000 µM (4 mM, 40° C., Day 14, read-out: Activity (%) Day 14): 237% | activity at 4000 µM (4 mM, 50° C., Day 0, read-out: Activity (%) Day 0): 100% | activity at 4000 µM (4 mM, 50° C., Day 1, read-out: Activity (%) Day 1): 220% | activity at 4000 µM (4 mM, 50° C., Day 3, read-out: Activity (%) Day 3): 211% | activity at 4000 µM (4 mM, 50° C., Day 7, read-out: Activity (%) Day 7): 212% | activity at 4000 µM (4 mM, 50° C., Day 14, read-out: Activity (%) Day 14): 238% | increase of BOD activity as compared with that prior to leaving (4 mM, one day at not lower than 40° C.): ≥ 2 times | increase of BOD activity as compared with that prior to leaving (4 mM, seven days at 20° C.): ≥ 2 times | increase of BOD activity as compared with that prior to leaving (4 mM, three days at 30° C.): ≥ 2 times | BOD activity increase at 5° C. compared with not lower than 10° C.: not found to be increased to an extend that was achieved

O=c1[nH]c(=O)c2[nH]c(=O)[nH]c2[nH]1 [Uric acid, uric acid]
activity at 20000 µM (20 mM, 5° C., Day 0, read-out: Activity (%) Day 0): 100% | activity at 20000 µM (20 mM, 5° C., Day 1, read-out: Activity (%) Day 1): 116% | activity at 20000 µM (20 mM, 5° C., Day 3, read-out: Activity (%) Day 3): 113% | activity at 20000 µM (20 mM, 5° C., Day 8, read-out: Activity (%) Day 8): 140% | activity at 20000 µM (20 mM, 5° C., Day 14, read-out: Activity (%) Day 14): 137% | activity at 20000 µM (20 mM, 5° C., Day 28, read-out: Activity (%) Day 28): 144% | activity at 20000 µM (20 mM, 10° C., Day 0, read-out: Activity (%) Day 0): 100% | activity at 20000 µM (20 mM, 10° C., Day 1, read-out: Activity (%) Day 1): 123% | activity at 20000 µM (20 mM, 10° C., Day 3, read-out: Activity (%) Day 3): 123% | activity at 20000 µM (20 mM, 10° C., Day 8, read-out: Activity (%) Day 8): 159% | activity at 20000 µM (20 mM, 10° C., Day 14, read-out: Activity (%) Day 14): 144% | activity at 20000 µM (20 mM, 10° C., Day 28, read-out: Activity (%) Day 28): 169% | activity at 20000 µM (20 mM, 20° C., Day 0, read-out: Activity (%) Day 0): 100% | activity at 20000 µM (20 mM, 20° C., Day 1, read-out: Activity (%) Day 1): 134% | activity at 20000 µM (20 mM, 20° C., Day 3, read-out: Activity (%) Day 3): 137% | activity at 20000 µM (20 mM, 20° C., Day 8, read-out: Activity (%) Day 8): 179% | activity at 20000 µM (20 mM, 20° C., Day 14, read-out: Activity (%) Day 14): 173% | activity at 20000 µM (20 mM, 20° C., Day 28, read-out: Activity (%) Day 28): 206% | activity at 20000 µM (20 mM, 30° C., Day 0, read-out: Activity (%) Day 0): 100% | activity at 20000 µM (20 mM, 30° C., Day 1, read-out: Activity (%) Day 1): 144% | activity at 20000 µM (20 mM, 30° C., Day 3, read-out: Activity (%) Day 3): 181% | activity at 20000 µM (20 mM, 30° C., Day 8, read-out: Activity (%) Day 8): 202% | activity at 20000 µM (20 mM, 30° C., Day 14, read-out: Activity (%) Day 14): 212% | activity at 20000 µM (20 mM, 30° C., Day 28, read-out: Activity (%) Day 28): 215% | activity at 20000 µM (20 mM, 40° C., Day 0, read-out: Activity (%) Day 0): 100% | activity at 20000 µM (20 mM, 40° C., Day 1, read-out: Activity (%) Day 1): 176% | activity at 20000 µM (20 mM, 40° C., Day 3, read-out: Activity (%) Day 3): 206% | activity at 20000 µM (20 mM, 40° C., Day 8, read-out: Activity (%) Day 8): 216% | activity at 20000 µM (20 mM, 40° C., Day 14, read-out: Activity (%) Day 14): 194% | activity at 20000 µM (20 mM, 40° C., Day 28, read-out: Activity (%) Day 28): 217% | activity at 20000 µM (20 mM, 50° C., Day 0, read-out: Activity (%) Day 0): 100% | activity at 20000 µM (20 mM, 50° C., Day 1, read-out: Activity (%) Day 1): 210% | activity at 20000 µM (20 mM, 50° C., Day 3, read-out: Activity (%) Day 3): 196% | activity at 20000 µM (20 mM, 50° C., Day 8, read-out: Activity (%) Day 8): 175% | activity at 20000 µM (20 mM, 50° C., Day 14, read-out: Activity (%) Day 14): 195% | activity at 20000 µM (20 mM, 50° C., Day 28, read-out: Activity (%) Day 28): 174% | increase of BOD activity as compared with that prior to leaving (20 mM, eight days at 20° C.): approximately 1.8 times | increase of BOD activity as compared with that prior to leaving (20 mM, three days at 30° C.): approximately 1.8 times | BOD activity increase at 5° C. compared with not lower than 10° C.: not found to be increased to an extend that was achieved
